Our source for the IC50 values is patent US20200069691A1, “HETEROCYCLIC COMPOUNDS AS HIV PROTEASE INHIBITORS” (Merck Sharp & Dohme Corp., priority 2016, published 2020).

The test addresses T1, wild-type HIV-1 protease (Human immunodeficiency virus type 1 group M subtype B, UniProt P04585).
T1 construct: Escherichia coli expressed wild-type HIV-1 protease protein
Description: Assay for Inhibition of Microbial Expressed HIV Protease (peptide substrate cleavage, LC-MS/MS readout). Type of test: biochemical. The conditions noted are these: E. coli expressed wild-type HIV-1 protease, mean of at least two independent experiments, read-out: HIV Pr Enzyme HIV1 PR IC50. Summed up:
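E. coli-expressed wild-type HIV-1 protease ([…]) was preincubated with inhibitor 30 min at room temperature in pH 5.5 acetate buffer (100 mM NaCl, 0.1% BSA). Then 400 μM octapeptide substrate was added and reacted 1 h at 30 °C; inhibition came from LC-MS/MS product peak areas, mean of ≥2 experiments.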

For `N=C1N[C@](CCCC(F)(F)F)(c2ccc(F)cc2)C(=O)N1Cc1ccc(C(F)(F)F)c(C(=O)N2Cc3cnc(-c4cccc(N5CCCC5)c4)nc3C2)c1` [Compound 62, (5R)-5-(4-fluorophenyl)-2-imino-3-[3-{[2-(3-pyrrolidin-1-ylphenyl)-5,7-dihydro-6H-pyrrolo[3,4-d]pyrimidin-6-yl]carbonyl}-4-(trifluoromethyl)benzyl]-5-(4,4,4-trifluorobutyl)imidazolidin-4-one], the IC50 stood at 6.86 nM.
In the case of `N=C1N[C@](CCCC(F)(F)F)(c2ccc(F)cc2)C(=O)N1Cc1ccc(C(F)(F)F)c(C(=O)N2Cc3cnc(-c4ccsc4)nc3C2)c1` [Compound 63, (5R)-5-(4-fluorophenyl)-2-imino-3-{3-[(2-thiophen-3-yl-5,7-dihydro-6H-pyrrolo[3,4-d]pyrimidin-6-yl)carbonyl]-4-(trifluoromethyl)-benzyl}-5-(4,4,4-trifluorobutyl)-imidazolidin-4-one] it was 6.94 nM; in that of `Cc1noc2ccc(-c3ncc4c(n3)CN(C(=O)c3cc(CN5C(=N)N[C@](CCCC(F)(F)F)(c6ccc(F)cc6)C5=O)ccc3C(F)(F)F)C4)cc12` [Compound 64, (5R)-5-(4-fluorophenyl)-2-imino-3-[3-{[2-(3-methyl-1,2-benzisoxazol-5-yl)-5,7-dihydro-6H-pyrrolo[3,4-d]pyrimidin-6-yl]carbonyl}-4-(trifluoromethyl)benzyl]-5-(4,4,4-trifluorobutyl)imidazolidin-4-one], 7.09 nM.
In the case of `CCc1nnc2n1CCN(C(=O)c1cc(CN3C(=N)N[C@](CCCC(F)(F)F)(c4ccc(F)cc4)C3=O)ccc1C(F)(F)F)C2` [Compound 65, (5R)-3-{3-[(3-ethyl-5,6-dihydro[1,2,4]triazolo[4,3-a]pyrazin-7(8H)-yl)carbonyl]-4-(trifluoromethyl)benzyl}-5-(4-fluorophenyl)-2-imino-5-(4,4,4-trifluorobutyl)imidazolidin-4-one] it was 7.39 nM; in that of `CN(C)S(=O)(=O)c1cccc(-c2ncc3c(n2)CN(C(=O)c2cc(CN4C(=N)N[C@](CCCC(F)(F)F)(c5ccc(F)cc5)C4=O)ccc2C(F)(F)F)C3)c1` [Compound 66, 3-(6-{[5-{[(4R)-4-(4-fluorophenyl)-2-imino-5-oxo-4-(4,4,4-trifluorobutyl)imidazolidin-1-yl]methyl}-2-(trifluoromethyl)-phenyl]carbonyl}-6,7-dihydro-5H-pyrrolo[3,4-d]pyrimidin-2-yl)-N,N-dimethylbenzene-sulfonamide], 7.73 nM; in that of `N=C1N[C@](CCCC(F)(F)F)(c2ccc(F)cc2)C(=O)N1Cc1ccc(C(F)(F)F)c(C(=O)N2Cc3cnc(-c4cccc(C(=O)N5CCSCC5)c4)nc3C2)c1` [Compound 67, (5R)-5-(4-fluorophenyl)-2-imino-3-[3-({2-[3-(thiomorpholin-4-ylcarbonyl)phenyl]-5,7-dihydro-6H-pyrrolo[3,4-d]pyrimidin-6-yl}carbonyl)-4-(trifluoromethyl)-benzyl]-5-(4,4,4-trifluorobutyl)-imidazolidin-4-one], 7.87 nM.
In the case of `CNc1ncc2c(n1)CN(C(=O)c1cc(CN3C(=N)N[C@](CCCC(F)(F)F)(c4ccc(F)cc4)C3=O)ccc1C(F)(F)F)C2` [Compound 68, (5R)-5-(4-fluorophenyl)-2-imino-3-[3-{[2-(methylamino)-5,7-dihydro-6H-pyrrolo[3,4-d]pyrimidin-6-yl]carbonyl}-4-(trifluoromethyl)-benzyl]-5-(4,4,4-trifluorobutyl)-imidazolidin-4-one] it was 8.3 nM.
In the case of `N=C1N[C@](CCCC(F)(F)F)(c2ccc(F)cc2)C(=O)N1Cc1ccc(C(F)(F)F)c(C(=O)N2Cc3cnc(-c4cnc(-n5cccn5)nc4)nc3C2)c1` [Compound 69, (5R)-5-(4-fluorophenyl)-2-imino-3-[3-({2-[2-(1H-pyrazol-1-yl)pyrimidin-5-yl]-5,7-dihydro-6H-pyrrolo[3,4-d]pyrimidin-6-yl}carbonyl)-4-(trifluoromethyl)benzyl]-5-(4,4,4-trifluorobutyl)imidazolidin-4-one], the IC50 came out at 8.8 nM.
In the case of `N=C1N[C@](C[C@@H]2CCOC2)(c2ccccc2)C(=O)N1Cc1ccc(C(F)(F)F)c(C(=O)N2Cc3nccnc3C2)c1` [Compound 70, (5R)-3-[3-(5,7-dihydro-6H-pyrrolo[3,4-b]pyrazin-6-ylcarbonyl)-4-(trifluoromethyl)-benzyl]-2-imino-5-phenyl-5-[(3R)-tetrahydrofuran-3-ylmethyl]imidazolidin-4-one] it was 8.89 nM; in that of `N=C1N[C@](CCCC(F)(F)F)(c2ccc(F)cc2)C(=O)N1Cc1ccc(C(F)(F)F)c(C(=O)N2Cc3cnc(NC4CCCC4)nc3C2)c1` [Compound 71, (5R)-3-[3-{[2-(cyclopentylamino)-5,7-dihydro-6H-pyrrolo[3,4-d]pyrimidin-6-yl]carbonyl}-4-(trifluoromethyl)benzyl]-5-(4-fluorophenyl)-2-imino-5-(4,4,4-trifluorobutyl)imidazolidin-4-one], 9.19 nM.
In the case of `N=C1N[C@](CCCC(F)(F)F)(c2ccc(F)cc2)C(=O)N1Cc1ccc(C(F)(F)F)c(C(=O)N2Cc3cnc(-c4cnn(-c5ccccc5)c4)nc3C2)c1` [Compound 72, (5R)-5-(4-fluorophenyl)-2-imino-3-[3-{[2-(1-phenyl-1H-pyrazol-4-yl)-5,7-dihydro-6H-pyrrolo[3,4-d]pyrimidin-6-yl]carbonyl}-4-(trifluoromethyl)benzyl]-5-(4,4,4-trifluorobutyl)imidazolidin-4-one] it was 9.2 nM; in that of `N=C1N[C@](CCCC(F)(F)F)(c2ccc(F)cc2)C(=O)N1Cc1ccc(C(F)(F)F)c(C(=O)N2Cc3cnc(C(F)(F)F)nc3C2)c1` [Compound 73, (5R)-5-(4-fluorophenyl)-2-imino-5-(4,4,4-trifluorobutyl)-3-[4-(trifluoromethyl)-3-{[2-(trifluoro-methyl)-5,7-dihydro-6H-pyrrolo-[3,4-d]pyrimidin-6-yl]carbonyl}-benzyl]imidazolidin-4-one], 9.29 nM; in that of `N=C1N[C@](CCCC(F)(F)F)(c2ccc(F)cc2)C(=O)N1Cc1ccc(C(F)(F)F)c(C(=O)N2Cc3cnc(NCC4CC4)nc3C2)c1` [Compound 74, (5R)-3-[3-({2-[(cyclopropylmethyl)amino]-5,7-dihydro-6H-pyrrolo[3,4-d]pyrimidin-6-yl}carbonyl)-4-(trifluoromethyl)benzyl]-5-(4-fluorophenyl)-2-imino-5-(4,4,4-trifluorobutyl)imidazolidin-4-one], 9.6 nM.
In the case of `N=C1NC(CCC2CC2)(c2cccc(C(F)(F)F)c2)C(=O)N1Cc1ccc(C(F)(F)F)c(C(=O)N2Cc3nccnc3C2)c1` (centres unmarked) [Compound 75, 5-(2-cyclopropylethyl)-3-[3-(5,7-dihydro-6H-pyrrolo[3,4-b]pyrazin-6-ylcarbonyl)-4-(trifluoromethyl)-benzyl]-2-imino-5-[3-(trifluoro-methyl)phenyl]-imidazolidin-4-one] it was 10.2 nM.
On to `N=C1NC(CCC2CC2)(c2ccc(-c3cccnc3)cc2)C(=O)N1Cc1ccc(C(F)(F)F)c(C(=O)N2Cc3nccnc3C2)c1` (centres unmarked) [Compound 76, 5-(2-cyclopropylethyl)-3-[3-(5,7-dihydro-6H-pyrrolo[3,4-b]pyrazin-6-ylcarbonyl)-4-(trifluoromethyl-)benzyl]-2-imino-5-(4-pyridin-3-ylphenyl) imidazolidin-4-one], for which the IC50 came to 10.4 nM.
In the case of `CC(C)CC(c1ccc(C(F)(F)F)c(C(=O)N2Cc3nccnc3C2)c1)N1C(=N)N[C@](CC2CC2)(c2ccccc2)CC1=O` (stereo partly drawn) [Compound 77, (6S)-6-(cyclopropylmethyl)-3-{1-[3-(5,7-dihydro-6H-pyrrolo[3,4-b]pyrazin-6-ylcarbonyl)-4-(trifluoromethyl)phenyl]-3-methyl-butyl}-2-imino-6-phenyltetra-hydropyrimidin-4(1H)-one] it was 10.5 nM; in that of `N=C1NC(CCC2CC2)(c2cccc(F)c2)C(=O)N1Cc1ccc(C(F)(F)F)c(C(=O)N2CCn3c(nnc3C(F)(F)F)C2)c1` (centres unmarked) [Compound 78, 5-(2-cyclopropylethyl)-5-(3-fluorophenyl)-2-imino-3-[4-(trifluoromethyl)-3-{[3-(trifluoro-methyl)-5,6-dihydro-[1,2,4]triazolo-[4,3-a]pyrazin-7(8H)-yl]carbonyl}-benzyl]imidazolidin-4-one], 10.5 nM; in that of `N#Cc1cccc(-c2ncc3c(n2)CN(C(=O)c2cc(CN4C(=N)N[C@](CCCC(F)(F)F)(c5ccc(F)cc5)C4=O)ccc2C(F)(F)F)C3)c1` [Compound 79, 3-(6-{[5-{[(4R)-4-(4-fluorophenyl)-2-imino-5-oxo-4-(4,4,4-trifluoro-butyl)imidazolidin-1-yl]methyl}-2-(trifluoromethyl)-phenyl]carbonyl}-6,7-dihydro-5H-pyrrolo[3,4-d]pyrimidin-2-yl)benzonitrile], 10.8 nM.
In the case of `CN(C)c1ncc2c(n1)CN(C(=O)c1cc(CN3C(=N)N[C@](CCCC(F)(F)F)(c4ccc(F)cc4)C3=O)ccc1C(F)(F)F)C2` [Compound 80, (5R)-3-[3-{[2-(dimethylamino)-5,7-dihydro-6H-pyrrolo[3,4-d]pyrimidin-6-yl]carbonyl}-4-(trifluoromethyl)benzyl]-5-(4-fluorophenyl)-2-imino-5-(4,4,4-trifluorobutyl)imidazolidin-4-one] it was 11.5 nM.
In the case of `COC(=O)Nc1ncc2c(n1)CN(C(=O)c1ccc3c(c1)[C@H](N1C(=N)N[C@](CCC(C)C)(c4ccccc4)C1=O)CCC3)C2` [Compound 81, methyl [6-({(8R)-8-[(4R)-2-imino-4-(3-methylbutyl)-5-oxo-4-phenylimidazolidin-1-yl]-5,6,7,8-tetrahydronaphthalen-2-yl}carbonyl)-6,7-dihydro-5H-pyrrolo[3,4-d]pyrimidin-2-yl]carbamate] it was 12 nM.
